In patent publication EP4644396A1 (Visionpharma (Nantong) Co., Ltd, priority 2022, dated 2024) one finds IC50 data, which are given here for 14 compounds.

In one assay the target is T1, human TLR7 (Homo sapiens, UniProt Q9NYK1).
T1 sequence (Q9NYK1 27-1049): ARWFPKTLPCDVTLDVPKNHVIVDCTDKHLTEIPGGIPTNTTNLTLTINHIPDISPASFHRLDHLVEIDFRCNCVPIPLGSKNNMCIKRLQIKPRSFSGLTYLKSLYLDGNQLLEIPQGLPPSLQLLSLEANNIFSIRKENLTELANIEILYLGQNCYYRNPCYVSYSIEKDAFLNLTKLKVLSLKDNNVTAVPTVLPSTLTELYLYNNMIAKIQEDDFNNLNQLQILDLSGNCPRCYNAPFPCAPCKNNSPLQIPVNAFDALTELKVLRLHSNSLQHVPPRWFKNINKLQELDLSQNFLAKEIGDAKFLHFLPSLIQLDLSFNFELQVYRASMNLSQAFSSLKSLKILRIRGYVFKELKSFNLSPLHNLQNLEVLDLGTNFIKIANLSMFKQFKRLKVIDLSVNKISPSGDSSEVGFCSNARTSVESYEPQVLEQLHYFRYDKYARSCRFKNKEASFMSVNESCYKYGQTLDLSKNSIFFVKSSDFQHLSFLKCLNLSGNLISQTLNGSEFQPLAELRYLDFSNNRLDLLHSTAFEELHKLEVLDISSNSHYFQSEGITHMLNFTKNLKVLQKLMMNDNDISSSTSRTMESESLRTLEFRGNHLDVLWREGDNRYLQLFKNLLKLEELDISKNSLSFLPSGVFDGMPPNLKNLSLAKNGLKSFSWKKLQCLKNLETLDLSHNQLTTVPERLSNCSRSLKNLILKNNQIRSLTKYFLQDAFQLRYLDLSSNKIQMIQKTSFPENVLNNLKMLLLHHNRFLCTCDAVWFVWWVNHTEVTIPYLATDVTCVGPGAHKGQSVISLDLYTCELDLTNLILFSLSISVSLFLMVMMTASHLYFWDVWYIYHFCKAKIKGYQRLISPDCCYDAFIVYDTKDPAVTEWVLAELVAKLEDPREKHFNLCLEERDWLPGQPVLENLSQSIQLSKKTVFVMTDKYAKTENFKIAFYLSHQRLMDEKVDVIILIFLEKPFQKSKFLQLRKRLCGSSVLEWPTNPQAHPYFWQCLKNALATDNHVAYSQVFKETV
Briefly: HEK-Blue hTLR7 SEAP reporter gene inhibition assay. It is filed as cell-based. To be noted: read-out: HEK-Blue hTLR7 IC50. An outline of the steps: (§1)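 Cells seeded (TLR7 line 80,000, TLR8 line 60,000 per well), compound added at 0.001–36 µM final for 15 min, then agonist at 10 µM final (Gardiquimod for TLR7) for 20 h. SEAP measured with Quanti-Blue; IC50 fitted.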
For orientation: Reporter assays use an easily measured gene product as a stand-in for the process of interest.

The target of the next assay is T2, human TLR8 (Homo sapiens, UniProt Q9NR97).
T2 construct: expressed in transfected cells
T2 sequence (Q9NR97 27-1041): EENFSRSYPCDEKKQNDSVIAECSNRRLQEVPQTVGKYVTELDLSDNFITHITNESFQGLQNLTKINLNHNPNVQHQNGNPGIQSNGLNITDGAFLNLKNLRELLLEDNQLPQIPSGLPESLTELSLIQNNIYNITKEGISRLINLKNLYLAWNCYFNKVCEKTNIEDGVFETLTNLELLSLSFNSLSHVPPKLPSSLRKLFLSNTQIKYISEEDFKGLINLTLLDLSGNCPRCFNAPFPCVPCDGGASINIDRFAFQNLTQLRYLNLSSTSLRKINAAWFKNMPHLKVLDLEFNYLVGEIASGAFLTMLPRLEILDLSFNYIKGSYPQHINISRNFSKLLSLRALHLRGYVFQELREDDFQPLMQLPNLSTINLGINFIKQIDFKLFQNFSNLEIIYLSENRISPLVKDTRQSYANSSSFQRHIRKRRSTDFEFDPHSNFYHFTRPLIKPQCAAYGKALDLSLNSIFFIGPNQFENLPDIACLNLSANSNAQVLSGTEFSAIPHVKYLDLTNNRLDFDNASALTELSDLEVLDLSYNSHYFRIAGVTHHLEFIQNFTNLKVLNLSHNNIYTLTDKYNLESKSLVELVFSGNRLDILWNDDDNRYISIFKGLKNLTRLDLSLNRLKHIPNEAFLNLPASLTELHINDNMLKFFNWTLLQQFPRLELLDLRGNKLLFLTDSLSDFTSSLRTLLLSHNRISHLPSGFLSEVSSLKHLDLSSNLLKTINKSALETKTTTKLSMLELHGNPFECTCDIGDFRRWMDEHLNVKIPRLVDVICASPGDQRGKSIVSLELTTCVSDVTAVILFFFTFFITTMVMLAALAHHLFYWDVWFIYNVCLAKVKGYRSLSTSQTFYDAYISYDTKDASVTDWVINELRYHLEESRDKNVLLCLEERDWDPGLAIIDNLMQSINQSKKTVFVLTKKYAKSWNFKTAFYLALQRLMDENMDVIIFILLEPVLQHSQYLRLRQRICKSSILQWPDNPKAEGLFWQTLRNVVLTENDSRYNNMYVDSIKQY
Nature of the assay: HEK-Blue hTLR8 SEAP reporter gene inhibition assay. The assay is classed as cell-based. To be noted: read-out: HEK-Blue hTLR8 IC50. Summed up: as §1

[1] abbreviates: hTLR7 HEK-Blue cells, TLR7 ligand Gardiquimod 10 µM, 20 hours, SEAP by Quanti-blue, class symbols.
Where [2] appears, read: hTLR8 HEK-Blue cells, TLR8 ligand 10 µM, 20 hours, SEAP by Quanti-blue, class symbols.

Like-named read-outs stand apart in the source and are kept apart here. A value given as a limit tells only on which side of the number the result lay.

Take `C[C@@H]1CN(c2ccc(C#N)n3ncc(F)c23)Cc2c3c(nn21)CN(Cc1cn[nH]c1)[C@@H](C)C3` [Example I-137, 4-((4R,9S)-8-((1H-pyrazol-4-yl)methyl)-4,9-dimethyl-3,4,7,8,9,10-hexahydropyrido [3',4':3,4]pyrazolo[1,5-a]pyrazin-2(1H)-yl)-3-fluoropyrazolo[1,5-a]pyridine-7-carbonitrile]: the IC50 was less than 50 nM at human TLR7 (setting [1]) and less than 100 nM on human TLR8 (setting [2]).
For the compound `C[C@@H]1CN(c2ccc(C#N)n3ncc(F)c23)Cc2c3c(nn21)CN(CC(=O)N1CCC1)[C@@H](C)C3` [Example I-138, 4-((4R,9S)-8-(2-(azetidin-1-yl)-2-oxoethyl)-4,9-dimethyl-3,4,7,8,9,10-hexahydropyrido [3',4':3,4]pyrazolo[1,5-a]pyrazin-2(1H)-yl)-3-fluoropyrazolo[1,5-a]pyridine-7-carbonitrile], the IC50 at human TLR7 was less than 50 nM; on human TLR8, greater than 100 nM.
On to `C[C@@H]1CN(c2ccc(C#N)n3ncc(F)c23)Cc2c3c(nn21)CN(CC(=O)N1CCOCC1)[C@@H](C)C3` [Example I-139, 4-((4R,9S)-4,9-dimethyl-8-(2-morpholino-2-oxoethyl)-3,4,7,8,9,10-hexahydropyrido [3',4':3,4]pyrazolo[1,5-a]pyrazin-2(1H)-yl)-3-fluoropyrazolo[1,5-a]pyridine-7-carbonitrile], for which the IC50 is less than 50 nM on human TLR7 (setting [1]) and greater than 100 nM on human TLR8 (setting [2]).
The like results for `C[C@@H]1CN(c2ccc(C#N)n3ncc(F)c23)Cc2c3c(nn21)CN(CC(=O)N1CC(F)(F)C1)[C@@H](C)C3` [Example I-140, 4-((4R,9S)-8-(2-(3,3-difluoroazetidin-1-yl)-2-oxoethyl)-4,9-dimethyl-3,4,7,8,9,10-hexahydropyrido[3',4':3,4]pyrazolo[1,5-a]pyrazin-2(1H)-yl)-3-fluoropyrazolo[1,5-a]pyridine-7-carbonitrile] were, in that order, less than 50 nM and greater than 100 nM.
Take `C[C@@H]1CN(c2ccc(C#N)c3ncccc23)Cc2c3c(nn21)CN(CC(N)=O)[C@@H](C)C3` [Example I-141, 2-((4R,9S)-2-(8-cyanoquinolin-5-yl)-4,9-dimethyl-1,2,3,4,9,10-hexahydropyrido [3',4':3,4]pyrazolo[1,5-a]pyrazin-8(7H)-yl)acetamide]: the IC50 on human TLR7 (setting [1]) was greater than 50 nM; at human TLR8 (setting [2]), greater than 100 nM.
For `C[C@@H]1CN(c2ccc(C#N)n3ncc(F)c23)Cc2c3c(nn21)CN(C1CCOC1)[C@@H](C)C3` (stereo partly drawn) [Example I-142, 4-((4R,9S)-4,9-dimethyl-8-(tetrahydrofuran-3-yl)-3,4,7,8,9,10-hexahydropyrido [3',4':3,4]pyrazolo[1,5-a]pyrazin-2(1H)-yl)-3-fluoropyrazolo[1,5-a]pyridine-7-carbonitrile] the same measures were less than 50 nM and greater than 100 nM.
For `C[C@@H]1CN(c2ccc(C#N)n3ncc(F)c23)Cc2c3c(nn21)CN(CC(=O)N1C[C@H](C)N[C@@H](C)C1)[C@@H](C)C3` [Example I-144, 4-((4R,9S)-8-(2-((3S,5S)-3,5-dimethylpiperazin-1-yl)-2-oxoethyl)-4,9-dimethyl-3,4,7,8,9,10-hexahydropyrido[3',4':3,4]pyrazolo[1,5-a]pyrazin-2(1H)-yl)-3-fluoropyrazolo[1,5-a]pyridine-7-carbonitrile] the same measures were less than 50 nM and greater than 100 nM.
As to `C[C@@H]1CN(C(=O)CN2Cc3nn4c(c3C[C@@H]2C)CN(c2ccc(C#N)n3ncc(F)c23)C[C@H]4C)C[C@@H](C)N1` [Example I-146, 4-((4R,9S)-8-(2-((3R,5R)-3,5-dimethylpiperazin-1-yl)-2-oxoethyl)-4,9-dimethyl-3,4,7,8,9,10-hexahydropyrido[3',4':3,4]pyrazolo[1,5-a]pyrazin-2(1H)-yl)-3-fluoropyrazolo[1,5-a]pyridine-7-carbonitrile], the IC50 on human TLR7 (setting [1]) is less than 50 nM; at human TLR8 (setting [2]), greater than 100 nM.
`C[C@@H]1CN(c2ccc(C#N)n3ncc(F)c23)Cc2c3c(nn21)CN(CC(=O)N1CCCC1)[C@@H](C)C3` [Example I-151, 4-((4R,9S)-4,9-dimethyl-8-(2-oxo-2-(pyrrolidin-1-yl)ethyl)-3,4,7,8,9,10-hexahydropyrido[3',4':3,4]pyrazolo[1,5-a]pyrazin-2(1H)-yl)-3-fluoropyrazolo[1,5-a]pyridine-7-carbonitrile]: the values for the IC50 on human TLR7 (setting [1]) and at human TLR8 (setting [2]) were less than 50 nM and greater than 100 nM, respectively.
For `C[C@@H]1CN(c2ccc(C#N)n3ncc(F)c23)Cc2c3c(nn21)CN(CC(=O)N1CCC(F)(F)C1)[C@@H](C)C3` [Example I-152, 4-((4R,9S)-8-(2-(3,3-difluoropyrrolidin-1-yl)-2-oxoethyl)-4,9-dimethyl-3,4,7,8,9,10-hexahydropyrido[3',4':3,4]pyrazolo[1,5-a]pyrazin-2(1H)-yl)-3-fluoropyrazolo[1,5-a]pyridine-7-carbonitrile] the same measures were less than 50 nM and greater than 100 nM.
On to `C[C@@H]1CN(c2ccc(C#N)n3ncc(F)c23)Cc2c3c(nn21)CN([C@@H]1CCNC1=O)[C@@H](C)C3` [Example I-155, 4-((4R,9S)-4,9-dimethyl-8-((R)-2-oxopyrrolidin-3-yl)-3,4,7,8,9,10-hexahydropyrido[3',4':3,4]pyrazolo[1,5-a]pyrazin-2(1H)-yl)-3-fluoropyrazolo[1,5-a]pyridine-7-carbonitrile], for which the IC50 was less than 50 nM on human TLR7 (setting [1]) and greater than 100 nM on human TLR8 (setting [2]).
For `CC(C(N)=O)N1Cc2nn3c(c2C[C@@H]1C)CN(c1ccc(C#N)n2ncc(F)c12)C[C@H]3C` (stereo partly drawn) [Example I-156, 2-((4R,9S)-2-(7-cyano-3-fluoropyrazolo[1,5-a]pyridin-4-yl)-4,9-dimethyl-1,2,3,4,9,10-hexahydropyrido[3',4':3,4]pyrazolo[1,5-a]pyrazin-8(7H)-yl)propanamide] the same measures were greater than 50 nM and greater than 100 nM.
For `C[C@@H]1CN(c2ccc(C#N)n3ncc(F)c23)Cc2c3c(nn21)CN([C@H]1CCNC1=O)[C@@H](C)C3` [Example I-157, 4-((4R,9S)-4,9-dimethyl-8-((S)-2-oxopyrrolidin-3-yl)-3,4,7,8,9,10-hexahydropyrido[3',4':3,4]pyrazolo[1,5-a]pyrazin-2(1H)-yl)-3-fluoropyrazolo[1,5-a]pyridine-7-carbonitrile] the same measures were greater than 50 nM and greater than 100 nM.
For `C[C@@H]1CN(c2ccc(C#N)n3ncc(F)c23)Cc2c3c(nn21)CN(C[C@@H](O)CO)[C@@H](C)C3` [Example I-158, 4-((4R,9S)-8-((R)-2,3-dihydroxypropyl)-4,9-dimethyl-3,4,7,8,9,10-hexahydropyrido[3',4':3,4]pyrazolo[1,5-a]pyrazin-2(1H)-yl)-3-fluoropyrazolo[1,5-a]pyridine-7-carbonitrile], the IC50 on human TLR7 (setting [1]) was less than 50 nM; at human TLR8 (setting [2]), less than 100 nM.

As usually defined, the IC50 is the concentration at which inhibition is half-maximal.
